Here are results for four compounds from publication PMC10291556 (Journal of Medicinal Chemistry, 2023).

SMILES strings stand for the structures. Read-outs that look alike come from different tables or passages of the source.

The test system of series [1] is HeLa cells / Thp-1/PMA macrophages. The series is described as follows: Phagocytosis of treated HeLa cells by Thp-1/PMA macrophages. It is filed as cell-based, human. The settings on record: HeLa treated 24 h at 1× or 3× IC50,72h, co-incubated 2.5 h with Thp-1/PMA macrophages. As for the experimental part:
Figure 8 Hallmarks of ICD. (A) Extracellular ATP levels in HeLa cell supernatants. […] (B) Extracellular level of HMGB1. […] (C) Calreticulin exposure to the cell surface. […] The surface calreticulin exposure was determined in 4′,6-diamidino-2-phenylindole dihydrochloride (DAPI)-negative cell population. Relative fluorescence intensity was calculated as the median fluorescence of the population of treated cells/median fluorescence of untreated control cells. The data in panels A, B, and C are shown as a mean of 4–5 measurements ± SD. Statistical significance from untreated control was determined with the Student t-test (*p ≤ 0.05, **p ≤ 0.01, and ^#p ≤ 0.001). (D) Quantitative evaluation of phagocytosis of HeLa cells treated with the investigated compounds by human Thp-1/PMA macrophages (analyzed by flow cytometry). […] Error bars are the SEMs calculated from three independent experiments. The stars denote a significant difference from untreated control (*p ≤ 0.05, **p ≤ 0.01) as calculated by the […] Student t-test. […]
Human monocytic leukemia cells Thp-1 (obtained from American Type Culture Collection, ATCC) were differentiated into macrophages with phorbol 12-myristate 13-acetate (PMA, 100 nM) for 24 h. […] Phagocytosis was evaluated using flow cytometry (BD FACSVerse), and data were analyzed with FCS Express 7 (DeNovo software; Glendale, CA). […]

For series [2], the system named is A2780cisR. As to the kind of experiment: MTT antiproliferative assay, 72 h. The format is cell-based, human. The settings on record: read-out: IC50 A2780cisR. As for the experimental part: (§1) Cells were treated with the tested compounds in a final volume of 200 μL/well. […] Calbiochem, Darmstadt, Germany) was added, and the cells were incubated for an additional 2–4 h. The medium was removed, and the insoluble formazan product was dissolved in 100 μL/well DMSO. The absorbance was read at 570 nm (vs 620 nm) using an Absorbance Reader (SUNRISE TECAN SCHOELLER). The read values were converted to the percentage of control. […] All experiments were made in triplicate.
(Tetrazolium dyes change colour on reduction, which living cells bring about.)

The subject of series [3] is A2780. The series is described as follows: MTT antiproliferative assay, 72 h. It is filed as cell-based, human. Conditions: read-out: IC50 A2780. As for the experimental part: as §1
The test system of series [4] is HCT-116. As to the kind of experiment: MTT antiproliferative assay, 72 h. It is filed as cell-based, human. The settings on record: read-out: IC50 HCT-116. As for the experimental part:
as §1

Series [5] has as its system HeLa. As to the kind of experiment: MTT antiproliferative assay, 72 h. The format is cell-based, human. As for the experimental part: as §1
The test system of series [6] is MCF-7. The series is described as follows: MTT antiproliferative assay, 72 h. It is filed as cell-based, human. Conditions: read-out: IC50 MCF-7. As for the experimental part:
as §1

The subject of series [7] is MDA-MB-231. As to the kind of experiment: MTT antiproliferative assay, 72 h. The settings on record: read-out: IC50 MDA-MB-231. It is filed as cell-based, human. As for the experimental part:
as §1

Series [8] in a line: MTT assay in non-cancerous fibroblasts, 72 h. The format is cell-based. Conditions: MRC-5 cells (non-cancerous fibroblasts), non-cancerous human fibroblasts, 72 h incubation, mean ± SD. As for the experimental part:
(§2) Cells were treated with the tested compounds in a final volume of 200 μL/well. […] Calbiochem, Darmstadt, Germany) was added, and the cells were incubated for an additional 2–4 h. The medium was removed, and the insoluble formazan product was dissolved in 100 μL/well DMSO. […] The read values were converted to the percentage of control. […] All experiments were made in triplicate.

Series [9] concerns HeLa cells. The series is described as follows: Mitochondrial membrane potential (TMRE, flow cytometry). It is filed as cell-based, human. The settings on record: 10× IC50, 1 h, vs untreated control. As for the experimental part: Figure 4 Changes in the mitochondrial membrane potential Δψm in HeLa cells. The cells were treated with Pt compounds at the concentrations corresponding to 10× IC50 for 1 h and subsequently stained with TMRE. The fluorescence was measured by flow cytometry. Data represents mean ± SD from three independent experiments, *p < 0.01.
HeLa cells were seeded (6-well plates, 3 × 10^5 cells/well), grown overnight, and then treated with the tested compounds for 1 h. The medium was removed, and a fresh medium containing TMRE (Thermo Fisher Scientific) at a final concentration of […] in 500 μL was added. The cells were incubated for 30 min at 37 °C and then harvested using trypsin. TMRE fluorescence was measured with a fluorescence-activated cell sorting (FACS) Verse flow cytometer (Becton Dickinson), and the data were analyzed using the ModFit LT 4.1 (Verity Software House) software. The experiment was performed in triplicate.

Series [10] deals with COX in HeLa cells. As to the kind of experiment: COX activity assay (kit) in treated cells. The format is cell-based, human. Conditions: 24 h, 1× IC50,72h, vs untreated control. As for the experimental part: The results are expressed relative to the COX activity of untreated control.
HeLa cells were seeded in 6-well plates at a density of 10^5 cells/well and incubated overnight. The cells were treated with the tested compounds at concentrations corresponding to 1× IC50. Following a 24 h treatment, the cells were lyzed with radioimmunoprecipitation assay (RIPA) buffer supplemented with proteinase inhibitors on ice for 10 min. The extracts were cleared with centrifugation (12,000g/5 min), and protein content was determined using Bradford assay. COX activity was determined with a COX Activity Assay Kit (Abcam). 6 μg of protein was used in the reaction. The experiment was set up according to the manufacturer’s instructions. The fluorescence (Ex/Em 535/587 nm) was read in a kinetic mode, and the COX inhibition was expressed as a percentage of the activity of the untreated control.

In series [11] the test system is HeLa cells. As to the kind of experiment: ATP secretion. It is filed as cell-based, human. The settings on record: 1× and 3× IC50, 24 h.
Protocol: HeLa cells were seeded in 24-well plates at a density of 10^4 cells/well, grown overnight, and then treated with the tested complexes for 24 h. Aliquots of culture medium samples were withdrawn, centrifugated (500g, 3 min), and processed with ATP Bioluminescence Assay Kit CLS II, Roche. Briefly, 50 μL of cell-free medium samples were added to a 96-well flat white plate, and an equal volume of luciferase reagent was added. The luminescence was measured immediately on a plate reader (SPARK, Tecan). The blank (no ATP) was subtracted from the raw data. ATP concentrations were obtained from the standard curve and normalized to cell counts and control. The data are shown as MEAN of 4–5 independent measurements.
Series [12] deals with HeLa cells. The series is described as follows: HMGB1 release (ELISA). The format is cell-based, human. The settings on record: 1×, 2×, 3× IC50, 20 h. (In general: An ELISA detects its analyte on a solid surface through an enzyme-linked reagent.)
Protocol: (B) Extracellular level of HMGB1. […] The data in panels A, B, and C are shown as a mean of 4–5 measurements ± SD. Statistical significance from untreated control was determined with the Student t-test (*p ≤ 0.05, **p ≤ 0.01, and ^#p ≤ 0.001).
HeLa cells were seeded in 24-well plates at a density of 10^4 cells/well and grown overnight. The medium was removed, and a fresh medium (DMEM, 1% BSA, no FBS) containing indicated concentrations of tested complexes was added (300 μL). Following a 20 h treatment, medium samples were withdrawn, and the HMGB1 content was determined using an HMGB1 ELISA Kit (IBL international) following the instructions for use. Cell counts in corresponding wells were determined using Automated Cell Counter (Bio-Rad). HMGB1 concentrations were normalized to cell counts and to the value of untreated control. The experiment was performed twice with duplicate readings.
The test system of series [13] is HeLa cells. The series is described as follows: Calreticulin exposure (flow cytometry). Conditions: 3× IC50, 16–18 h, DAPI-negative cells. The format is cell-based, human. (In flow cytometry, cells or beads pass a laser one at a time.)
Protocol: Following the treatment, the cells were harvested (trypsin), washed with FACS buffer (PBS, BSA 1%, and FBS 2%), and incubated with Alexa Fluor 488 Anti-Calreticulin antibody for 40 min at 4 °C. The buffer was removed (CFG, 300 g, 3 min) and replaced with FACS buffer containing DAPI (1 μg mL^–1, 20 min), and the cells were analyzed with flow cytometry (BD FACS Verse) and FCS Express 6 (DeNovo Software, Glendale, CA). Calreticulin fluorescence histograms were analyzed in the DAPI-negative (intact membrane) cell population.
The test system of series [14] is MRC-5. The series is described as follows: MTT assay in non-cancerous fibroblasts, 72 h. It is filed as cell-based. Conditions: non-cancerous human fibroblasts, 72 h incubation, mean ± SD. As for the experimental part: as §2
In series [15] the test system is HeLa cells. As to the kind of experiment: Cellular accumulation of platinum (ICP-MS). It is filed as cell-based, human. As for the experimental part: Briefly, 3 × 10^6 cells were seeded in 100 mm culture dishes and grown overnight. The cells were exposed to the tested complexes at indicated concentrations for indicated periods. […] The pellets were digested using the microwave acid (HCl) digestion system (CEM Mars). The platinum quantity taken up by the cells was determined by inductively coupled plasma mass spectrometry (ICP–MS). All experiments were performed in triplicate.

Series [16] in a line: Partition coefficient, shake-flask method. It is filed as physicochemical. Conditions: octanol/water. As for the experimental part: The “shake flask” method was used to measure the partition coefficients (P) of platinum compounds. The compounds were dissolved in octanol-saturated water (OSW) containing 200 mM NaCl. […] After careful separation of the layers with a fine-tip pipet, the Pt content in individual phases was determined by flameless atomic absorption spectrometry. The partition coefficients were calculated as the concentration ratio of the compound in the octanol layer to that in the aqueous layer, log P = log([Pt]WSO/[Pt]OSW).

The subject of series [17] is DNA isolated from HeLa cells. The series is described as follows: Pt associated with DNA isolated from treated HeLa cells. The format is cell-based, human. The settings on record: 1 µM compound, 6 h, mean ± SD. From the text: page 16: Table S1: […] concentration of tested compounds for 6 ha. […] Figure S19: A. Representative histograms obtained by flow cytometric analysis of calreticulin exposure in HeLa cells treated with indicated compounds. B. An example of gating DAPI negative population. Only DAPI-negative cells were taken for the evaluation.

Series [18] deals with peritoneal carcinomatosis. Details: method as in PMID 20535526. Conditions: BD-IX rats; cited from earlier work.
For series [19], the system named is oral cancer xenograft. Details: method as in PMID 33305724. The settings on record: BALB/c nude mice; cited from earlier work.
Series [20] relates to tumor cells. Conditions: cited from earlier work.
Setting [21] is: MTT, 72 h incubation, mean ± SD.

As to `COc1cccc2c1C(=O)c1c(O)c3c(c(O)c1C2=O)C[C@@](O)(C(=O)CO)C[C@@H]3O[C@H]1C[C@H](N)[C@H](O)[C@H](C)O1` [doxorubicin, reference compound], the “increase of tumor-cell phagocytosis” value in series [1] was “slightly less pronounced levels of phagocytosis”.

In the case of `O=C([O-])Cc1ccccc1Nc1c(Cl)cccc1Cl.[Na+]` [DCF, sodium {2-[(2,6-dichlorophenyl)amino]phenyl}-acetate, reference compound], the IC50 in series [2] (Homo sapiens, A2780cisR, 72 h) amounted to 138 ± 8 µM; in series [3] (Homo sapiens, A2780, 72 h), 238 ± 19 µM; in series [4] (Homo sapiens, HCT-116, 72 h), 211 ± 10 µM; in series [5] (Homo sapiens, HeLa, 72 h, read-out: IC50 HeLa), 250 ± 22 µM; in [5] (Homo sapiens, HeLa, read-out: HeLa (biological data CSV)) it was 240 ± 15 µM; in series [6] (Homo sapiens, MCF7, 72 h) it was 259 ± 17 µM. Also, the IC50 in series [7] (Homo sapiens, MDA-MB-231, 72 h) was found to be 187 ± 15 µM. In series [8], this compound gave an IC50 at 72 h of 445 ± 36 µM. Besides, the “mitochondrial membrane potential Δψm (TMRE fluorescence)” value in [9] is “approximately the same effect”. Also, the “inhibition of COX activity” value in [10] was “Inhibition of COX activity was also observed”. Besides, the ATP secretion result in series [11] was “effective as well”. The HMGB1 secretion entry in series [12] is given as “effective as well”. For the same compound, in series [13], the externalization of calreticulin result is given as “effective as well”.

For the compound `Cc1c(C)c2cccnc2c2ncccc12.N[C@H]1CCCC[C@@H]1N.[Pt]` [complex 1, [Pt(1S,2S-diaminocyclohexane)(5,6-dimethyl-1,10-phenanthroline)]^2+], the IC50 in series [2] (setting [21]) came to 0.06 ± 0.01 µM; in series [3] (setting [21]) it was 0.19 ± 0.04 µM; in series [4] (setting [21]), 0.08 ± 0.01 µM; in series [5] (MTT, 72 h incubation, mean ± SD, read-out: IC50 HeLa) it was 0.37 ± 0.01 µM; in series [6] (setting [21]) it was 0.7 ± 0.1 µM; in series [7] (setting [21]), 0.24 ± 0.03 µM. In [14], this compound had an IC50 of 0.17 ± 0.04 µM. Moreover, in [15] (0.1 μM complex, 24 h), the “cellular uptake 0.1 μM/24 h” value is on record as 4.4 ± 0.5 ng Pt/10^6 cells. Moreover, in series [15] (1 μM complex, 6 h), the “cellular uptake 1 μM/6 h” value is given as 13 ± 3 ng Pt/10^6 cells. For the same compound, the “cellular uptake 10 μM/6 h” value in series [15] (10 μM complex, 6 h) amounted to 72 ± 2 ng Pt/10^6 cells. Also, in series [16], the “log P” value was “–1.7 ± 0.2”. Also, in [17], the “amount of Pt associated with DNA” value is 2.0 ± 0.2 pg Pt/µg DNA. The ATP secretion entry in [11] was “effective as well”. For the same compound, the HMGB1 secretion result in series [12] is recorded as “effective as well”. Further, in series [13], the externalization of calreticulin entry was “effective as well”. In addition, the “increase of tumor-cell phagocytosis” value in [1] is “roughly as effective as its Pt(IV) analogues 2–4”. Besides, the “in vivo antitumor activity, peritoneal carcinomatosis” value in [18] is reported as “no antitumor activity”. The “in vivo anticancer effect, oral cancer xenograft” value in series [19] is recorded as “potent anticancer effect”.

For `O=C1[O][Pt]2([NH][C@@H]3CCCC[C@H]3[NH]2)[O]C1=O` [oxaliplatin], in [20], the tumor cell phagocytosis entry was “does not promote tumor cell phagocytosis”.
